Assay results from ChEMBL document CHEMBL5678816, “A Next-Generation TRK Kinase Inhibitor Overcomes Acquired Resistance to Prior TRK Kinase Inhibition in Patients with TRK Fusion-Positive Solid Tumors” (Cancer Discov, 2017).
The source made the active and inactive calls. The calls are words filed in the database; no cut-off is given here.

What was measured:
TT = assay: Inhibition of cell proliferation in human TT cells upto 10 umol/L incubated for 72 hrs by DAPI staining based analysis; format: functional; conditions: dose <= 10.0 µmol/L
K562 = assay: Inhibition of cell proliferation in human K562 cells upto 10 umol/L incubated for 72 hrs by DAPI staining based analysis; format: functional; conditions: dose <= 10.0 µmol/L
KM12 = assay: Inhibition of cell proliferation in TPM3-NTRK1 fusion positive human KM12 cells incubated for 72 hrs by DAPI staining based analysis; format: functional; conditions: KM12, 72 h
SK-MEL-28 = assay: Inhibition of cell proliferation in human SK-MEL-28 cells upto 10 umol/L incubated for 72 hrs by DAPI staining based analysis; format: functional; conditions: dose <= 10.0 µmol/L
[1] = target: Platelet-derived growth factor receptor alpha (Homo sapiens) (UniProt P16234); assay: Inhibition of PDGFRalpha (unknown origin) at 1 uM in presence of ATP relative to control; values are per cent of control
[2] = target: Casein kinase I isoform gamma-3 (Homo sapiens) (UniProt Q9Y6M4); assay: Inhibition of CK1gamma3 (unknown origin) at 1 uM in presence of ATP relative to control; values are per cent of control
Sequence of Casein kinase I isoform gamma-3 (Homo sapiens) (Q9Y6M4 whole entry, looked up, canonical isoform): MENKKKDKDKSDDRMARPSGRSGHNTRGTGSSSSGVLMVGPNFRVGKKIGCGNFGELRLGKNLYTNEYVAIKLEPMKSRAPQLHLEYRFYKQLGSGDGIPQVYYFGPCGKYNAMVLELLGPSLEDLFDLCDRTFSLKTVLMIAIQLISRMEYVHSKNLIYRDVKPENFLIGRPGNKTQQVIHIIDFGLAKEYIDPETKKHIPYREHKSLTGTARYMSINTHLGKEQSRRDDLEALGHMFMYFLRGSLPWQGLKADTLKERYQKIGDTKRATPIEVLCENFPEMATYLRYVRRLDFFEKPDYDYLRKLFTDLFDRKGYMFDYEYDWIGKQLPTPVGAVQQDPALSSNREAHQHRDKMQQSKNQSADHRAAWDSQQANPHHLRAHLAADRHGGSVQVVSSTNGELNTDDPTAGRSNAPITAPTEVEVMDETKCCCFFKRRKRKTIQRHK

RT112/84 = assay: Inhibition of cell proliferation in human RT112/84 cells upto 10 umol/L incubated for 72 hrs by DAPI staining based analysis; format: functional; conditions: dose <= 10.0 µmol/L
[3] = target: cGMP-dependent protein kinase 1 (Homo sapiens) (UniProt Q13976); assay: Inhibition of PRKG1beta (unknown origin) at 1 uM in presence of ATP relative to control; values are per cent of control
[4] = Cmin in adult patient with recurrent LMNA-NTRK1 rearranged colorectal cancer at 100 mg administered twice a day as powder-in-capsule or liquid formulation for 22 day and measured 10 hrs post dose by LC-MS/MS analysis; format: ADME; conditions: human, in vivo, po, read-out: Cmin
[5] = target: Serine/threonine-protein kinase N2 (Homo sapiens) (UniProt Q16513); assay: Inhibition of PRK2 (unknown origin) at 1 uM in presence of ATP relative to control; values are per cent of control
[6] = target: Ribosomal protein S6 kinase alpha-6 (Homo sapiens) (UniProt Q9UK32); assay: Inhibition of Rsk4 (unknown origin) at 1 uM in presence of ATP relative to control; values are per cent of control
Sequence of Ribosomal protein S6 kinase alpha-6 (Homo sapiens) (Q9UK32 whole entry, the tested form may be a part): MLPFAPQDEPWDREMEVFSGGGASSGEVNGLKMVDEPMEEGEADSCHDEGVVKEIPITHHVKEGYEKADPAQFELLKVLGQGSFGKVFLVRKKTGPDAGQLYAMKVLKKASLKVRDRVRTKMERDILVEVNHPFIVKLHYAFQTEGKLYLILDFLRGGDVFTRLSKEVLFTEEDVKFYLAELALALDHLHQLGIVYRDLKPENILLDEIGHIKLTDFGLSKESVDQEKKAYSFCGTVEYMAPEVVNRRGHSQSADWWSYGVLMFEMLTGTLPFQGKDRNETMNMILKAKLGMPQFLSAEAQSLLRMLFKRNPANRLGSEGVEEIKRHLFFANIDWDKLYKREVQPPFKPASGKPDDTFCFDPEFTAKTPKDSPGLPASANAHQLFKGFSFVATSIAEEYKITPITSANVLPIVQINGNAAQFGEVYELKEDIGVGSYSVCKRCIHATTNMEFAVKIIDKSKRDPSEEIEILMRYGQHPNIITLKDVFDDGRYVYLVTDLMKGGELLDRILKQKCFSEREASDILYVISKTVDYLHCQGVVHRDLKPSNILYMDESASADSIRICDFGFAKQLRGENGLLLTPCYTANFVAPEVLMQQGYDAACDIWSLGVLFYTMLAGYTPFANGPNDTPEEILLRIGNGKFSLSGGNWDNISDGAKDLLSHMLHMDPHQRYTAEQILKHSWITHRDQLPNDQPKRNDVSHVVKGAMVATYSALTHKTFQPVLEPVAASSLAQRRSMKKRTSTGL

[7] = Toxicity in nu/nu NCr mouse implanted with mouse NIH3T3 cells harboring extracellular domain deleted TRKA assessed as body weight loss at 30 to 300 mg/kg, po administered twice daily for 10 days relative to control; format: organism-based; conditions: in vivo, 240 h, dose 30-300 mg/kg, time 10 day
[8] = target: Serine/threonine-protein kinase Nek3 (Homo sapiens) (UniProt P51956); assay: Inhibition of NEK3 (unknown origin) at 1 uM in presence of ATP relative to control; values are per cent of control
Sequence of Serine/threonine-protein kinase Nek3 (Homo sapiens) (P51956 whole entry): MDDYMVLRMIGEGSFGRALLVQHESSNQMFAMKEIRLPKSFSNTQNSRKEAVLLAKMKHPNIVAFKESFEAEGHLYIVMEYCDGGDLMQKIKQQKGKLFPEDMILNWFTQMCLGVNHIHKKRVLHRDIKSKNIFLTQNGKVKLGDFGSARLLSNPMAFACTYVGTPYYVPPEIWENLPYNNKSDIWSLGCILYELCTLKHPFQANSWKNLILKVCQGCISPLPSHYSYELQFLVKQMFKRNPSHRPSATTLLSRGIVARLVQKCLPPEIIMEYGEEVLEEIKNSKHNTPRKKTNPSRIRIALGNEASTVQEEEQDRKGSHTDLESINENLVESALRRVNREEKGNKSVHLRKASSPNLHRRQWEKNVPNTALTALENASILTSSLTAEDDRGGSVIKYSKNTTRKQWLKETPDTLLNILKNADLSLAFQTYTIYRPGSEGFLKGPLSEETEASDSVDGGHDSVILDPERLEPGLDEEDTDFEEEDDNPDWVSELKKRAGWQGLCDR

[9] = Clearance in rat at 1 mg/kg, iv administered as 20% hydroxypropyl-beta-cyclodextrin formulation by LC-MS analysis; format: ADME, organism-based; conditions: in vivo
SCC-4 = assay: Inhibition of cell proliferation in human SCC-4 cells upto 10 umol/L incubated for 72 hrs by DAPI staining based analysis; format: functional; conditions: dose <= 10.0 µmol/L
[10] = target: Ephrin type-B receptor 2 (Homo sapiens) (UniProt P29323); assay: Inhibition of EphB2 (unknown origin) at 1 uM in presence of ATP relative to control; values are per cent of control
[11] = target: Serine/threonine-protein kinase TBK1 (Homo sapiens) (UniProt Q9UHD2); assay: Inhibition of TBK1 (unknown origin) at 1 uM in presence of ATP relative to control; values are per cent of control
Sequence of Serine/threonine-protein kinase TBK1 (Homo sapiens) (Q9UHD2 whole entry): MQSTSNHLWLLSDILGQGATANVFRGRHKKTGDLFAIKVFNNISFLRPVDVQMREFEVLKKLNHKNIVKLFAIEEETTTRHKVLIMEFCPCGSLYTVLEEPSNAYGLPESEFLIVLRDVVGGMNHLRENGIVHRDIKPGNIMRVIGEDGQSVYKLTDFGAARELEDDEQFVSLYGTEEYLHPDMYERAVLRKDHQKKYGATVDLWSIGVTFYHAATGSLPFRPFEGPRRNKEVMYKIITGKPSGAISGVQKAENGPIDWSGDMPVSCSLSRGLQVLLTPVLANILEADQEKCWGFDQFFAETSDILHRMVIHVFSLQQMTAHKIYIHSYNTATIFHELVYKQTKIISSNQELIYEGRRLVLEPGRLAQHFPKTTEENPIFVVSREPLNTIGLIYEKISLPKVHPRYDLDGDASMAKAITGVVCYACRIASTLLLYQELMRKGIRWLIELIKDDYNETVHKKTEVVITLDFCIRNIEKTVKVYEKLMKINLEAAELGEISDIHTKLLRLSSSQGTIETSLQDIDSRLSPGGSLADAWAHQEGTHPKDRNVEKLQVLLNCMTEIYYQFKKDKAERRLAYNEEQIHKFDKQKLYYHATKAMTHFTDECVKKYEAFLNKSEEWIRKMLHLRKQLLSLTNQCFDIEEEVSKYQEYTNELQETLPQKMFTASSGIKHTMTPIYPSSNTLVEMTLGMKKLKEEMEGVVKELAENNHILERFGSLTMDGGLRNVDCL

COR-L105 = assay: Inhibition of cell proliferation in human COR-L105 cells upto 10 umol/L incubated for 72 hrs by DAPI staining based analysis; format: functional; conditions: dose <= 10.0 µmol/L
KG-1 = assay: Inhibition of cell proliferation in human KG-1 cells upto 10 umol/L incubated for 72 hrs by DAPI staining based analysis; format: functional; conditions: dose <= 10.0 µmol/L
NIH3T3 = assay: Antitumor activity against mouse NIH3T3 cells harboring extracellular domain deleted TRKA implanted in nu/nu NCr mouse assessed as inhibition of tumor growth at 30 to 300 mg/kg, po administered twice daily for 10 days; format: functional, organism-based; conditions: dose 30-300 mg/kg, time 10.0 day
TAK1/TAB1 (Homo sapiens) = TAK1/TAB1 (Homo sapiens) (UniProt Q15750+O43318); assay: Inhibition of TAK1-TAB1 (unknown origin) at 1 uM in presence of ATP relative to control; values are per cent of control
[12] = target: Serine/threonine-protein kinase pim-2 (Homo sapiens) (UniProt Q9P1W9); assay: Inhibition of Pim-2 (unknown origin) at 1 uM in presence of ATP relative to control; values are per cent of control
Sequence of Serine/threonine-protein kinase pim-2 (Homo sapiens) (Q9P1W9 whole entry, looked up): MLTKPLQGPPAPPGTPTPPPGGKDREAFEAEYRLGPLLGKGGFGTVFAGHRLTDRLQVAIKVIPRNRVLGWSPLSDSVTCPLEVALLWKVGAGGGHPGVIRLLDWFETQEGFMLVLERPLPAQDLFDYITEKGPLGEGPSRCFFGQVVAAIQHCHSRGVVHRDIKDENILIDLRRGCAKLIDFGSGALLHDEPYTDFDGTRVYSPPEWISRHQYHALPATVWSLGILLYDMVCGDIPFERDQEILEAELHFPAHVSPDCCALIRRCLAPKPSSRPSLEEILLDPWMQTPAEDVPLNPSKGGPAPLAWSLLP

T47D = assay: Inhibition of cell proliferation in human T47D cells upto 10 umol/L incubated for 72 hrs by DAPI staining based analysis; format: functional; conditions: dose <= 10.0 µmol/L
[13] = target: Serine/threonine-protein kinase 33 (Homo sapiens) (UniProt Q9BYT3); assay: Inhibition of STK33 (unknown origin) at 1 uM in presence of ATP relative to control; values are per cent of control
[14] = target: Serine/threonine-protein kinase WNK2 (Homo sapiens) (UniProt Q9Y3S1); assay: Inhibition of WNK2 (unknown origin) at 1 uM in presence of ATP relative to control; values are per cent of control
Sequence of Serine/threonine-protein kinase WNK2 (Homo sapiens) (Q9Y3S1 whole entry): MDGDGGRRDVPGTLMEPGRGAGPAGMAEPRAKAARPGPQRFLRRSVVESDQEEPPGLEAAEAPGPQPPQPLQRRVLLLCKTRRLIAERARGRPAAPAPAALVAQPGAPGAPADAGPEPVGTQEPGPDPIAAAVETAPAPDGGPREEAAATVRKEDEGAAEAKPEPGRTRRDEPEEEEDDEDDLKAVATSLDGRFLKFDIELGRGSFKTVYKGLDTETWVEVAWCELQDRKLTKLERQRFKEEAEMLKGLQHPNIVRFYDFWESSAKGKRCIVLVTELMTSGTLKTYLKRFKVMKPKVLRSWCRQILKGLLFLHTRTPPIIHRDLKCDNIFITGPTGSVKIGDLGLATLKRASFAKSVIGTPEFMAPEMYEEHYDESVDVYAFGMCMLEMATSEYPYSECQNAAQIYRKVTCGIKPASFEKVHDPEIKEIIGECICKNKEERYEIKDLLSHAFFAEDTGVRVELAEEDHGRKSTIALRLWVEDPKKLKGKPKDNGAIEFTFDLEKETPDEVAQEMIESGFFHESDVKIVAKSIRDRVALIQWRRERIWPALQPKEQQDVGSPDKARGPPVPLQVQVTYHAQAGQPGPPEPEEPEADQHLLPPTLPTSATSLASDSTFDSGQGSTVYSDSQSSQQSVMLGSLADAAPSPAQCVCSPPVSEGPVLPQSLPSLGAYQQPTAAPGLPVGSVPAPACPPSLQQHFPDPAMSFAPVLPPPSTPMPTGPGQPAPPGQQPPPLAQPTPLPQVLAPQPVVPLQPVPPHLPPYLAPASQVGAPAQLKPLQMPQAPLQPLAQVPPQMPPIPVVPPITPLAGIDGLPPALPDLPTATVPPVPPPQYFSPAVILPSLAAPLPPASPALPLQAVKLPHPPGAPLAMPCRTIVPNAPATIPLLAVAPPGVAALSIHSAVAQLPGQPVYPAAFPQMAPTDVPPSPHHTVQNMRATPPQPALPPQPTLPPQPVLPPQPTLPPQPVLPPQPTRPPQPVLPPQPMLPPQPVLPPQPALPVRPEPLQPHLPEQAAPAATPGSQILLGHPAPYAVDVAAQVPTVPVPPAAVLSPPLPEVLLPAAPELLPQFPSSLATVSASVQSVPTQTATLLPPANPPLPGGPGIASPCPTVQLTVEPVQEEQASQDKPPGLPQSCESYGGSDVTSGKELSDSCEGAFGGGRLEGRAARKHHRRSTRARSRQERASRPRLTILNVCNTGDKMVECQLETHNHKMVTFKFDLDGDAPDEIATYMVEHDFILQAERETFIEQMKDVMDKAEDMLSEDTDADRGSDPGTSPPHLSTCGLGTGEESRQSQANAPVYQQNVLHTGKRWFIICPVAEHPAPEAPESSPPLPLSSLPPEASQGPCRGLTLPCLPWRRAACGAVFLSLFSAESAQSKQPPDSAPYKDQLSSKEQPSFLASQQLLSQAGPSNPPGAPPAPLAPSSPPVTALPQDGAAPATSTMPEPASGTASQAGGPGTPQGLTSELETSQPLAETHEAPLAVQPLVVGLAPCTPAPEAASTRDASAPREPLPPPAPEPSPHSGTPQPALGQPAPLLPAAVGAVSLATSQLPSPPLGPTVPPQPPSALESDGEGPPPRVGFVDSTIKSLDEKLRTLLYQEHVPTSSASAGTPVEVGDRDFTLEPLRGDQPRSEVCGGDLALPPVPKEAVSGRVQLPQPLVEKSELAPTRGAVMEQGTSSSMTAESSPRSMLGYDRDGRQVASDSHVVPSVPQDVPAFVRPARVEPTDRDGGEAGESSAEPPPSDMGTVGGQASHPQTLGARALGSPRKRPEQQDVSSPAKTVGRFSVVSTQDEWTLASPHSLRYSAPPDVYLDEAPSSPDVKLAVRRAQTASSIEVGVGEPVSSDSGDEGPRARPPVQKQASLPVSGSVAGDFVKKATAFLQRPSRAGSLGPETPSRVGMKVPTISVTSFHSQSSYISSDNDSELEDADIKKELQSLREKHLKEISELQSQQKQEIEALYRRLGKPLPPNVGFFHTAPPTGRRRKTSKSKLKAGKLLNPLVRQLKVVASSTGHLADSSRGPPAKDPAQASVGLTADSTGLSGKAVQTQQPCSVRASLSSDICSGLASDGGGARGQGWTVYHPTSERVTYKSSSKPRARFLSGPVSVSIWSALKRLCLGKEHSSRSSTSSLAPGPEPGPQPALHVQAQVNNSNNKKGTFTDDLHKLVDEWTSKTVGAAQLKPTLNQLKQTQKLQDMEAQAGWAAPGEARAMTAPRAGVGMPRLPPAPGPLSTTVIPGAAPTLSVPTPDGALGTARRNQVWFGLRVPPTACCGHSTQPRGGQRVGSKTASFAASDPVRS

[15] = target: RAC-beta serine/threonine-protein kinase (Homo sapiens) (UniProt P31751); assay: Inhibition of AKT2 (unknown origin) at 1 uM in presence of ATP relative to control; values are per cent of control
[16] = target: Cyclin-dependent kinase 2/cyclin E1 (Homo sapiens) (UniProt P24864+P24941); assay: Inhibition of CDK2/cyclinE (unknown origin) at 1 uM in presence of ATP relative to control; values are per cent of control
[17] = Inhibition of cell proliferation in ETV6-NTRK3 fusion positive human MO-91 cells incubated for 72 hrs by DAPI staining based analysis; format: functional; conditions: MO-91, 72 h
[18] = target: Death-associated protein kinase 3 (Homo sapiens) (UniProt O43293); assay: Inhibition of DAPK3 (unknown origin) at 1 uM in presence of ATP relative to control; values are per cent of control
[19] = target: Macrophage-stimulating protein receptor (Homo sapiens) (UniProt Q04912); assay: Inhibition of Ron (unknown origin) at 1 uM in presence of ATP relative to control; values are per cent of control

With `C[C@@H]1CCc2ncc(F)cc2[C@H]2CCCN2c2ccn3ncc(c3n2)C(=O)N1` [SELITRECTINIB] the inhibition (TT) was “inactive”, the inhibition (K562) was “inactive” and the IC50 (KM12) was no more than 5 nM. The inhibition (SK-MEL-28) was “inactive”, the residual activity [1] was 104% and the residual activity [2] was 113%. The inhibition (RT112/84) was “inactive”, the residual activity [3] was 114% and the concentration at 538 h [4] was 14.7 ng/mL. For the same compound, the residual activity [5] was 100%, the residual activity [6] was 127% and the Activity [7] was less than 5%. The residual activity [8] was 110%, the clearance [9] was 5.83 mL/min/kg and the inhibition (SCC-4) was “inactive”. The residual activity [10] was 81%, the residual activity [11] was 111% and the inhibition (COR-L105) was “inactive”. The inhibition (KG-1) was “inactive”, the Activity (NIH3T3) was “Active” and the residual activity (TAK1/TAB1 (Homo sapiens)) was 100%. The residual activity [12] was 120%, the inhibition (T47D) was “inactive” and the residual activity [13] was 106%. For the same compound, the residual activity [14] was 128%, the residual activity [15] was 121% and the residual activity [16] was 106%. The IC50 [17] was no more than 5 nM, the residual activity [18] was 120% and the residual activity [19] was 88.5%.
